Source: article PMC11431137, “[^68Ga]Ga-DOTAGA-Glu(FAPi)2 Shows Enhanced Tumor Uptake and Theranostic Potential in Preclinical PET Imaging” (Diagnostics, 2024)
Where “and” joins values, the source holds several entries; their conditions need not be identical. Equal entries are not always repeated. Each block holds one molecule with its values, some of them ahead of it.

Columns and labels:
[1] = system: endogenously FAP-expressing xenografted mouse model, U87MG; experiment: In vivo PET/CT imaging, organ distribution in U87MG xenografted mice
Excerpt: Six-week-old female NMRI nude mice were purchased (Janvier, Le Genest-Saint-Isle, France) and housed in groups of 4–8 mice in individually ventilated cages under regular lighting conditions. They were fed a standard pathogen-free pellet diet and provided water ad libitum. All animal experiments were approved by The Animal Experiments Inspectorate in Denmark (2021-15-0201-01041). The animals were acclimatized for two weeks before study initiation.
To establish a tumor model, the mice were subcutaneously inoculated on the right flank with a human xenograft glioblastoma U87MG (HTB-14, ATCC, Manassas, VA, USA). These cells were cultivated in Dulbecco’s modified Eagle’s medium (DMEM) supplemented with fetal bovine serum (FBS) and penicillin–streptomycin (Pen/Strep). Tumor growth was monitored two times weekly using calipers.
After adequate tumor establishment, the animals were injected intravenously in the tail vein with 4.49 ± 0.04 MBq [^68Ga]Ga-DOTAGA-Glu(FAPi)2 in a 100 μL phosphate buffer (0.1 M, pH 7) with 1% ethanol (v/v). PET/CT imaging (Inveon, Siemens Healthineers, Knoxville, TN, USA) was performed immediately after injection, and PET data were acquired for 3000 s. The imaging protocol included a dynamic framing setup, with five consecutive frames of 600 s each, resulting in average time intervals of 0–10, 10–20, 20–30, 30–40, and 40–50 min post-injection. During imaging, body temperature was maintained using a heated platform.
PET images were reconstructed using the 3D-OSEM/SP-MAP algorithm, and attenuation correction was performed using the co-registered CT images. The activity concentration was decay-corrected to the time of injection and quantified using Inveon Research Workplace (IRW). Regions of interest were manually drawn on CT images to delineate organs and derive volume and activity. Subsequently, the percentage of injected dose per gram (% ID/g) was calculated for tumor, blood, liver, kidney, and muscle tissues for each frame.
All graphical representations of the data were generated using Prism version 10.1.0 (1994–2023, GraphPad Software, LLC, Boston, MA, USA). The results were expressed as the mean ± standard error of the mean (SEM).

[2] = logD7.4, shake flask method with n-octanol and phosphate-buffered saline (pH 7.4); format: physicochemical; details: n-octanol / PBS pH 7.4, shake flask
Excerpt: The kinetic profile of [^68Ga]Ga-DOTAGA-Glu-(FAPi)2 is explained considering its low lipophilicity, estimated by measuring the logD7.4 value using the shake flask method with n-octanol and phosphate-buffered saline (pH 7.4). The logD7.4 of −2.5 ± 0.05 indicates good hydrophilicity, leading to renal excretion over biliary excretion. […] Moreover, the compound is more hydrophilic than the first-generation dimer [^68Ga]Ga-DOTAGA.(SA.FAPi)2 (−2.0 ± 0.1) ([25]), resulting in lower background uptake and higher tumor-to-background image contrast.

[3] = Stability of radiochemical purity (RCP) post-formulation by radio-HPLC; format: physicochemical; details: formulated in phosphate buffer (0.1 M, pH 7) with ethanol
Protocol: Gallium-68 chloride was obtained by eluting the ^68Ge/^68Ga generator (Galliapharm, Eckert & Ziegler, Berlin, Germany) with 0.1 M HCl. Ammonium acetate buffer (0.1 M, pH 5.5), and a DOTAGA-Glu(FAPi)2 stock solution (2 mg/mL) for labeling was prepared using water for ultratrace analysis (Merck, Darmstadt, Germany). [^68Ga]GaCl3 solution in 0.1 M HCl (500 µL, ca. 200 MBq ^68Ga) was mixed with ammonium acetate buffer (80 µL) and DOTAGA-Glu-(FAPi)2 stock solution (4 µL). The resulting mixture was placed on an agitating mixer and shaken at 600 rpm for 5 min at 60 °C. Afterward, the reaction mixture was diluted with 5 mL water and passed through a Strata-X 33 µm polymeric reversed-phase cartridge (Phenomenex, Torrance, CA, USA). The cartridge was rinsed with more water (0.3 mL) and eluted with absolute ethanol (0.5 mL). Ethanol was evaporated under nitrogen flow and gentle heating to 40 °C. The residue was resolubilized in an aliquot of fresh ethanol (20 µL) and further diluted with phosphate buffer (0.1 M, pH 7) to a total volume of 2 mL.
Radiochemical conversion (RCC) for the ^68Ga-labeling process and radiochemical purity (RCP) of the formulated [^68Ga]Ga-DOTAGA-Glu(FAPi)2 were assessed by radio-HPLC.

FAP = system: FAP; design: method as in PMID 36980775; details: cited from earlier work
FAP over PREP and DPP = system: FAP over PREP and DPP; design: method as in PMID 38999044; details: compared with DOTAGA.(SA.FAPi)2; cited from earlier work
[4] = 5 min post-injection, Mean±SEM, n = 4 mice
[5] = 5 min post-injection, individual mice M1-M4
[6] = 15 min post-injection, Mean±SEM, n = 4 mice
[7] = 15 min post-injection, individual mice M1-M4
[8] = 25 min post-injection, Mean±SEM, n = 4 mice
[9] = 25 min post-injection, individual mice M1-M4
[10] = 35 min post-injection, Mean±SEM, n = 4 mice
[11] = 35 min post-injection, individual mice M1-M4
[12] = 45 min post-injection, Mean±SEM, n = 4 mice, listed as [68Ga]Ga-DOTAGA-Glu-(FAPi)2
[13] = 45 min post-injection, Mean±SEM, n = 4 mice, listed as [^68Ga]Ga-DOTAGA-Glu-(FAPi)2
[14] = 45 min post-injection, individual mice M1-M4

- Organ distribution, bladder [1, 4]: 3.96±0.42 %ID/g
- Organ distribution, kidney [1, 4]: 6.68±0.48 %ID/g
- Organ distribution, liver [1, 4]: 5.83±0.58 %ID/g
- Organ distribution, tumor [1, 4]: 2.55±0.38 %ID/g
- Tumor-to-blood ratio (TBR) [1, 4]: 0.46±0.05
- Tumor-to-kidney ratio (TKR) [1, 4]: 0.38±0.03
- Tumor-to-liver ratio (TLR) [1, 4]: 0.43±0.03
- Tumor-to-muscle ratio (TMR) [1, 4]: 3.66±0.13
- Organ distribution, blood [1, 5]: 5.98 %ID/g
- Organ distribution, tumor [1, 5]: 3.52 %ID/g and 2.54 %ID/g and 1.66 %ID/g
- Tumor-to-blood ratio (TBR) [1, 5]: 0.59 and 0.42 and 0.37 and 0.44
- Tumor-to-kidney ratio (TKR) [1, 5]: 0.47 and 0.35 and 0.38 and 0.31
- Tumor-to-liver ratio (TLR) [1, 5]: 0.51 and 0.41 (2×) and 0.40
- Tumor-to-muscle ratio (TMR) [1, 5]: 3.52 and 3.35 and 3.91 and 3.86
- Organ distribution, bladder [1, 6]: 25±2.12 %ID/g
- Organ distribution, kidney [1, 6]: 7.08±0.56 %ID/g
- Organ distribution, liver [1, 6]: 4.02±0.15 %ID/g
- Organ distribution, tumor [1, 6]: 4.28±0.37 %ID/g
- Tumor-to-blood ratio (TBR) [1, 6]: 0.92±0.10
- Tumor-to-kidney ratio (TKR) [1, 6]: 0.61±0.05
- Tumor-to-liver ratio (TLR) [1, 6]: 1.06±0.07
- Tumor-to-muscle ratio (TMR) [1, 6]: 3.68±0.32
- Organ distribution, blood [1, 7]: 4.04 %ID/g
- Organ distribution, tumor [1, 7]: 5.16 %ID/g and 3.44 %ID/g and 4.56 %ID/g
- Tumor-to-blood ratio (TBR) [1, 7]: 1.04 and 0.69 and 1.13 and 0.84
- Tumor-to-kidney ratio (TKR) [1, 7]: 0.75 and 0.60 and 0.59 and 0.49
- Tumor-to-liver ratio (TLR) [1, 7]: 1.20 and 1.00 and 1.16 and 0.88
- Tumor-to-muscle ratio (TMR) [1, 7]: 3.40 and 3.28 and 4.65 and 3.37
- Organ distribution, bladder [1, 8]: 42.54±5.06 %ID/g
- Organ distribution, kidney [1, 8]: 4.02±0.60 %ID/g
- Organ distribution, liver [1, 8]: 3.21±0.11 %ID/g
- Organ distribution, tumor [1, 8]: 4.49±0.45 %ID/g
- Tumor-to-blood ratio (TBR) [1, 8]: 1.12±0.15
- Tumor-to-kidney ratio (TKR) [1, 8]: 1.14±0.07
- Tumor-to-liver ratio (TLR) [1, 8]: 1.40±0.12
- Tumor-to-muscle ratio (TMR) [1, 8]: 3.71±0.40
- Organ distribution, blood [1, 9]: 3.66 %ID/g
- Organ distribution, tumor [1, 9]: 5.65 %ID/g and 3.51 %ID/g and 4.60 %ID/g
- Tumor-to-blood ratio (TBR) [1, 9]: 1.46 and 0.76 and 1.26 and 1.01
- Tumor-to-kidney ratio (TKR) [1, 9]: 1.33 and 1.11 and 0.98 and 1.14
- Tumor-to-liver ratio (TLR) [1, 9]: 1.56 and 1.31 and 1.62 and 1.10
- Tumor-to-muscle ratio (TMR) [1, 9]: 3.57 and 3.36 and 4.87 and 3.03
- Organ distribution, bladder [1, 10]: 50.28±7.13 %ID/g
- Organ distribution, kidney [1, 10]: 2.78±0.44 %ID/g
- Organ distribution, liver [1, 10]: 2.88±0.08 %ID/g
- Organ distribution, tumor [1, 10]: 4.62±0.51 %ID/g
- Tumor-to-blood ratio (TBR) [1, 10]: 1.29±0.21
- Tumor-to-kidney ratio (TKR) [1, 10]: 1.70±0.10
- Tumor-to-liver ratio (TLR) [1, 10]: 1.60±0.16
- Tumor-to-muscle ratio (TMR) [1, 10]: 3.74±0.37
- Organ distribution, blood [1, 11]: 3.44 %ID/g
- Organ distribution, tumor [1, 11]: 5.95 %ID/g and 3.52 %ID/g and 4.68 %ID/g
- Tumor-to-blood ratio (TBR) [1, 11]: 1.85 and 0.85 and 1.36 and 1.11
- Tumor-to-kidney ratio (TKR) [1, 11]: 1.96 and 1.64 and 1.47 and 1.71
- Tumor-to-liver ratio (TLR) [1, 11]: 1.75 and 1.48 and 1.94 and 1.24
- Tumor-to-muscle ratio (TMR) [1, 11]: 3.66 and 3.17 and 4.80 and 3.32
- Organ distribution, bladder ([1]; 45 min post-injection, Mean±SEM, n = 4 mice): 53.81±7.59 %ID/g
- Organ distribution, kidney [1, 12]: 2.16±0.21 %ID/g
- Organ distribution, liver [1, 12]: 2.73±0.09 %ID/g
- Organ distribution, tumor [1, 12]: 4.65±0.52 %ID/g
- Tumor-to-blood ratio (TBR) [1, 12]: 1.38±0.25
- Tumor-to-kidney ratio (TKR) [1, 12]: 2.15±0.08
- Tumor-to-liver ratio (TLR) [1, 12]: 1.71±0.17
- Tumor-to-muscle ratio (TMR) [1, 12]: 3.88±0.41
- Tumor-to-blood ratio (TBR) [1, 13]: 1.4 ± 0.3
- Tumor-to-liver ratio (TLR) [1, 13]: 1.7 ± 0.2
- Tumor-to-muscle ratio (TMR) [1, 13]: 3.9 ± 0.4
- Tumor-to-blood ratio (TBR) [1, 14]: 1.19 and 2.06 and 0.88 and 1.38
- Tumor-to-kidney ratio (TKR) [1, 14]: 2.35 and 2.03 and 2.20 and 2.02
- Tumor-to-liver ratio (TLR) [1, 14]: 1.89 and 1.58 and 2.07 and 1.28
- Tumor-to-muscle ratio (TMR) [1, 14]: 3.52 and 3.41 and 5.09 and 3.49
- clearance route ([1]; PET/CT, U87MG tumor-bearing mice): cleared mainly by the kidneys
- logD7.4 [2]: −2.5 ± 0.05
- RCP stable post-formulation [3]: at least 1 h
SMILES: N#C[C@@H]1CC(F)(F)CN1C(=O)CNC(=O)c1ccnc2ccc(OCCCCNC(=O)CC[C@H](NC(=O)CCC(C(=O)O)N3CCN(CC(=O)[O-])CCN(CC(=O)[O-])CCN(CC(=O)[O-])CC3)C(=O)NCCCCOc3ccc4nccc(C(=O)NCC(=O)N5CC(F)(F)C[C@H]5C#N)c4c3)cc12.[68Ga+3] (some centres unmarked) [[^68Ga]Ga-DOTAGA-Glu(FAPi)2]
- Organ distribution, bladder [1, 5]: 4.80 %ID/g and 4.51 %ID/g and 3.00 %ID/g and 3.51 %ID/g
- Organ distribution, kidney [1, 5]: 7.50 %ID/g and 7.11 %ID/g and 6.77 %ID/g and 5.32 %ID/g
- Organ distribution, liver [1, 5]: 6.93 %ID/g and 6.06 %ID/g and 6.15 %ID/g and 4.19 %ID/g
- Organ distribution, bladder [1, 7]: 20.10 %ID/g and 25.42 %ID/g and 30.39 %ID/g and 24.10 %ID/g
- Organ distribution, kidney [1, 7]: 6.09 %ID/g and 6.56 %ID/g and 8.67 %ID/g and 7.01 %ID/g
- Organ distribution, liver [1, 7]: 3.79 %ID/g and 3.93 %ID/g and 4.45 %ID/g and 3.92 %ID/g
- Organ distribution, bladder [1, 9]: 31.21 %ID/g and 41.63 %ID/g and 55.86 %ID/g and 41.46 %ID/g
- Organ distribution, kidney [1, 9]: 3.47 %ID/g and 3.78 %ID/g and 5.77 %ID/g and 3.07 %ID/g
- Organ distribution, liver [1, 9]: 2.94 %ID/g and 3.20 %ID/g and 3.49 %ID/g and 3.19 %ID/g
- Organ distribution, bladder [1, 11]: 35.81 %ID/g and 47.82 %ID/g and 69.95 %ID/g and 47.53 %ID/g
- Organ distribution, kidney [1, 11]: 2.39 %ID/g and 2.64 %ID/g and 4.04 %ID/g and 2.06 %ID/g
- Organ distribution, liver [1, 11]: 2.67 %ID/g and 2.93 %ID/g and 3.06 %ID/g and 2.85 %ID/g
- Organ distribution, bladder [1, 14]: 39.77 %ID/g and 49.32 %ID/g and 75.38 %ID/g and 50.79 %ID/g
- Organ distribution, kidney [1, 14]: 1.99 %ID/g and 2.17 %ID/g and 2.73 %ID/g and 1.74 %ID/g
- Organ distribution, liver [1, 14]: 2.47 %ID/g and 2.78 %ID/g and 2.91 %ID/g and 2.75 %ID/g
- Organ distribution, tumor [1, 14]: 4.40 %ID/g and 6.01 %ID/g and 3.52 %ID/g and 4.68 %ID/g

SMILES: N#C[C@@H]1CC(F)(F)CN1C(=O)CNC(=O)c1ccnc2ccc(OCCCCNC(=O)CC[C@H](NC(=O)CCC(C(=O)O)N3CCN(CC(=O)O)CCN(CC(=O)O)CCN(CC(=O)O)CC3)C(=O)NCCCCOc3ccc4nccc(C(=O)NCC(=O)N5CC(F)(F)C[C@H]5C#N)c4c3)cc12 (stereo partly drawn) [DOTAGA-Glu(FAPi)2, 2,2′,2″-(10-(4-(((S)-1,5-bis((4-((4-((2-((S)-2-Cyano-4,4-difluoropyrrolidin-1-yl)-2-oxoethyl)carbamoyl)quinolin-6-yl)oxy)butyl)amino)-1,5-dioxopentan-2-yl)amino)-1-carboxy-4-oxobutyl)-1,4,7,10-tetraazacyclododecane-1,4,7-triyl)triacetic acid]
- IC50 (FAP): 260 ± 40 pM
- selectivity for FAP over PREP and DPP (FAP over PREP and DPP): higher selectivity than DOTAGA.(SA.FAPi)2
